From paper PMC8329121 (Journal of Neuroimmune Pharmacology, 2021)
Substitutions are numbered along the chain they refer to.

Key:
[1] = molecular target: T1, E2C-I159A/H547A (C90A/C306A/I159A/H547A) (Homo sapiens, UniProt Q01959, C306A/C90A/H547A/I159A); assay: MTSET assay, [3H]DA uptake in HEK293 cells; type: cell-based; conditions: 1 mM MTSET
T1 construct: expressed in transfected cells; host or cells: HEK293 cells, transient, pcDNA3.1+
T1 sequence (Q01959 1-620 C90A/I159A/C306A/H547A): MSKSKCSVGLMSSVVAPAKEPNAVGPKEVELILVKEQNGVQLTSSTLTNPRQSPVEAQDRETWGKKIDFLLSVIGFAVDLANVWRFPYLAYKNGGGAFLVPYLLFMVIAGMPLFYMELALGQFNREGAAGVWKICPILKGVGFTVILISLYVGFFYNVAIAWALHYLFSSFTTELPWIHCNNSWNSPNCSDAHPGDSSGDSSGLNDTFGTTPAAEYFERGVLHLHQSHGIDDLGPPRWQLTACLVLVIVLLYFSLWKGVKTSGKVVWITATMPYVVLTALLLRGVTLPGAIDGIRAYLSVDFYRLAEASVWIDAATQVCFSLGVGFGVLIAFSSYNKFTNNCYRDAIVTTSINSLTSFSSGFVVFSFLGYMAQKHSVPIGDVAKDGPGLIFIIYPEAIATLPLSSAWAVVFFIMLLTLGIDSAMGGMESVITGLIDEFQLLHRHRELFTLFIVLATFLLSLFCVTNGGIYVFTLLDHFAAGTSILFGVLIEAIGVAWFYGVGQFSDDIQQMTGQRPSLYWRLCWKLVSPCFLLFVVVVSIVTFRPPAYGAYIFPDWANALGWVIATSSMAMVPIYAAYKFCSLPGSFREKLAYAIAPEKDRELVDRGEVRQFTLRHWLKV
Excerpt: (§1) All mutants on hDAT were generated based on the predictions made using our computational model, as described previously using site-directed mutagenesis based on the wild-type hDAT (WT hDAT) sequence (NCBI, cDNA clone MGC: 164,608 IMAGE: 40,146,999) (Quizon et al. [2016]). The combination of hDAT mutations on Asp206 and His547 (Aspartic acid 206 to leucine and histidine 547 to alanine, D206L/H547A) were predicted to eliminate two hydrogen bonds between Tat and hDAT. In addition, the combination of mutations on Tyr88, Asp206, and His547 (tyrosine88 to phenylalanine and aspartic acid 206 to leucine and histidine 547 to alanine, Y88F/D206L/H547A) were predicted to eliminate three hydrogen bonds from the Tat-hDAT complex. Two extracellular cysteine90 and cysteine306 residues on WT hDAT were mutated to alanine as E2C hDAT (C90A/C306A hDAT), rendering the E2C hDAT MTSET-insensitive background (Pedersen et al. [2014]). A triple mutation of the two cysteine90 and 306 residues to alanine and […] to cysteine on WT hDAT was generated as E2C-I159C hDAT (C90A/C306A/I159C) for MTSET-sensitive construct. A combination of C90A/C306A/H547A was generated as E2C/H547A hDAT for MTSET-insensitive control for H547A. To determine whether H547A-enhanced DA transport is mediated by changing transporter conformation, two combinations of C90A/C306A/I159C/H547A and C90A/C306A/I159A/H547A were generated as E2C-I159C/H547A and E2C-I159A/H547A for positive and negative controls for MTSET sensitive background, respectively. Synthetic cDNA encoding hDAT subcloned into pcDNA3.1+ (provided by Dr. Haley E Melikian, University of Massachusetts) was used as a template to generate mutants using site-directed mutagenesis performed by GENEWIZ (South Plainfield, NJ). DNA sequencing was also performed by GENEWIZ to confirm the sequences of the mutant constructs. Plasmid DNA were propagated and purified using the Qiagen Hi-speed maxi prep plasmid DNA isolation kit (Qiagen, Valencia, CA, USA).
(§2) This assay was performed based on the previous report with minor modifications (Loland et al. [2004], [2008]). First, we generated five WT hDAT based plasmid construct for MTSET-insensitive or sensitive background as we described above. HEK293 cells were grown in poly-d-lysine coated plates at a density of 1 × 10^5 cells/cm^2 were transfected with different E2C- associated hDAT background constructs: E2C hDAT, E2C-I159C hDAT, E2C/H547A hDAT, E2C-I159C/H547A or E2C-I159A/H547A. Twenty-four hours after the transfection, cells were washed twice with 1× KRH buffer, and preincubated with or without the presence of 10 µM nomifensine (for non-specific uptake) and MTSET for 10 min at room temperature. MTSET at 1 mM final concentration was chosen based on a pilot study on optimizing MTSET concentrations (0.1, 0.5 or 1.0 mM). […] Because MTSET is easily hydrolyzed in solution, the amount needed for a 10 × stock was weighed out and dissolved in 1 × KRH buffer just right before adding to the assigned wells, for a 10-fold dilution (final concentration of 1 mM in final volume of 250 µl). […] Cells were immediately washed twice with ice-cold 1 × KRH buffer to terminate the reaction and were lysed rapidly with the addition of 1 % SDS. Cell lysates were collected after incubation for 1 h at room temperature and radioactivity was determined the next day.

[2] = molecular target: T2, E2C hDAT (C90A/C306A hDAT) (Homo sapiens, UniProt Q01959, C306A/C90A); assay: MTSET assay, [3H]DA uptake in HEK293 cells; type: cell-based
T2 construct: expressed in transfected cells; host or cells: HEK293 cells, transient, pcDNA3.1+
T2 sequence (Q01959 1-620 C90A/C306A): T1 sequence (Q01959 1-620 C90A/I159A/C306A/H547A) with A159I, A547H
Excerpt: as §1, §2

[3] = E2C, 1 mM MTSET, HEK293, Fig. 8b

C[N+](C)(C)CCSS(C)(=O)=O [MTSET, [2-(trimethylammonium)ethyl]-methanethiosulfonate]
inhibition of DA uptake relative to E2C ([1]; Fig. 8b): 31% | [3H]DA uptake in the presence of MTSET ([1]; HEK293, Fig. 8b): 59.7 ± 5.7 | [3H]DA uptake in the presence of MTSET [2, 3]: 86.5 ± 6.0 | effect of MTSET on DA uptake [2, 3]: no effect | effect on [3H]DA uptake ([2]; E2C-hDAT, MTSET 0.1, 0.5, 1.0 mM, pilot study Fig. 8a): no effect
